In PMC4355294, “The Ingenious Structure of Central Rotor Apparatus in VoV1; Key for Both Complex Disassembly and Energy Coupling between V1 and Vo” (PLoS ONE, 2015):

Assays:
V1-E.h-DF = tested on: T1, V1-E.h-DF; assay: enzyme-coupled ATP regenerating ATPase assay, Michaelis-Menten fit; format: biochemical, Thermus thermophilus; conditions: 25°C; isolated V1
T1 construct: gene atpA
Excerpt: enzyme-coupled ATP regenerating ATPase assay, Michaelis-Menten fit on V1-E.h-DF

V1-H.s-DF = tested on: T2, V1-H.s-DF; assay: as above; format: biochemical, Thermus thermophilus; conditions: 25°C; isolated V1
T2 construct: gene atpA
Excerpt: enzyme-coupled ATP regenerating ATPase assay, Michaelis-Menten fit on V1-H.s-DF

Nc1ncnc2c1ncn2[C@@H]1O[C@H](COP(=O)(O)OP(=O)(O)OP(=O)(O)O)[C@@H](O)[C@H]1O [ATP]
Km (V1-E.h-DF): 760 ± 40 µM
Km (V1-H.s-DF): 480 ± 40 µM
